Results taken from US8853228B2, “Heterocyclic analogs of propargyl-linked inhibitors of dihydrofolate reductase” (University of Connecticut, priority 2011, dated 2014).
Values after ≈ are worked out from the molar mass of the structure shown. Where two headings read alike, the source gives them in different places.

Tests used:
hDHFR = hDHFR (Homo sapiens (Human), UniProt P00374); assay: hDHFR enzyme inhibition assay; assay type: biochemical
Experimental: hDHFR: The gene for hDHFR was amplified using PCR from cDNA obtained from ATCC. The gene was inserted in a pET41 vector with a C-terminal histidine tag for affinity chromatography. The resulting construct was verified by sequencing. The hDHFR protein was expressed in E. coli and purified using a nickel affinity column.
(§1) Enzyme and inhibitor were allowed to incubate for 5 min before adding dihydrofolate to initiate the reaction. Enzyme assays were performed at least four times. IC50 values and their standard deviations were calculated in the presence of varying concentrations of inhibitor near the IC50 concentration.
(§2) Enzyme inhibition assays were performed by monitoring the rate of NADPH oxidation by the DHFR enzyme at an absorbance of 340 nm. Assays were performed in the presence of saturating concentrations of NADPH and initiated with dihydrofolate. All assays were completed at 25° C. in a buffer containing 20 mM TES pH 7.0, 50 mM KCl, 10 mM 2-mercaptoethanol, 0.5 mM EDTA and 1 mg/mL BSA. Inhibition was measured at least three times with inhibitor concentrations near the IC50 value and the average IC50 value is reported with a standard deviation.

CgDHFR = CgDHFR (Candida glabrata (strain ATCC 2001 / BCRC 20586 / JCM 3761 / NBRC 0622 / NRRL Y-65 / CBS 138) (Yeast) (Nakaseomyces glabratus), UniProt Q6FPH0); assay: biochemical; conditions: for IC50: Table 7, read-out: IC50 (CgDHFR)
Sequence of CgDHFR (Q6FPH0 1-217): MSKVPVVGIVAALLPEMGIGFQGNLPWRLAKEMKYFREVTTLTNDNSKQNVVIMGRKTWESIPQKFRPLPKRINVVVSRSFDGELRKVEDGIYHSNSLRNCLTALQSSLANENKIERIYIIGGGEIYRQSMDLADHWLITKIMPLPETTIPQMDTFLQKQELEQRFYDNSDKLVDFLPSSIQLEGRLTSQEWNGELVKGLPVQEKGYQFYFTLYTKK
Text: CgDHFR: The gene coding CgDHFR was amplified by PCR from C. glabrata genomic DNA obtained from ATCC. The gene was inserted in a pET41 vector that includes a C-terminal histidine tag for nickel affinity chromatography. E. coli cells were transformed and the resulting plasmid was verified by sequencing. The protein was expressed in E. coli BL21(DE3) cells with isopropyl β-D-thiogalactoside induction. Following growth, the cells were lysed with BugBuster (Novagen) and centrifuged; the supernatant was loaded on a Ni-NTA column. The column was washed with 20 mM Tris (pH 8.0)/0.4 M NaCl and the protein was eluted using a gradient of 20 mM Tris (pH 8.0), 0.3 M NaCl, 20% glycerol, 0.1 mM EDTA, 2 mM DTT, 250 mM imidazole. Fractions containing CgDHFR were identified by SDS-PAGE, combined and desalted using a PD-10 column with a buffer containing 20 mM Tris pH 8.0, 20% glycerol, 0.1 mM EDTA and 2 mM DTT. The protein was concentrated to 13 mg/mL.
as §1

C. glabrata = assay: Antifungal assay (MIC, Alamar Blue); assay type: cell-based, Candida glabrata; conditions: for MIC (Cg): C. glabrata, YM media; for MIC C. glabrata: IsoSensitest media supplemented with 2% glucose (thymidine-depleted); for antifungal MIC C. glabrata: cell growth inhibition (Table 7 conditions)
Experimental: Antifungal assays were performed using C. glabrata as a suspension in 50% glycerol at −78° C. For susceptibility testing, a streak of stock culture was made on SDA agar and grown at 30° C. for 48 h. One pure colony of the test organism was recovered from the plate, suspended in appropriate media and grown in a 5 mL shake flask culture. A sample of the shake flask culture was diluted to 1×10^5 cells/mL in media and added to 96-well test plates (100 μL per well) containing test compounds dispensed in DMSO (1 μL). Amphotericin and ketoconazole were used as controls. After an incubation period determined from the strain specific doubling time, Alamar Blue (10 μL) was added, allowed to incubate; each well was scored for dye reduction.
Several representative compounds were also evaluated in thymidine-depleted media. It has been shown that high levels of thymidine interfere with accurate susceptibility testing of antifolates. To compensate for this, antifolates are frequently evaluated in a controlled minimal media with a low thymidine concentration. […] In addition, the compounds were also evaluated for mammalian cell toxicity using MCF-10 and HepG2 cell lines. Cellular selectivity is reported as the IC50 value for the MCF-10 human cell line divided by the MIC value (μg/mL) (Table 8).

MCF-10 cells = assay: Mammalian cell toxicity, MCF-10; assay type: cell-based, human; conditions: cytotoxicity
Experimental: (§3) Adherent cell lines were maintained in Eagle's Minimal Essential Media (Sigma-Aldrich, St. Louis, Mo., USA) with 2 mM glutamine and Earle's Balanced Salt Solution (HyClone, Logan, Utah, USA) adjusted to contain 1.5 g/L sodium bicarbonate, 0.1 mM non-essential amino acids, 1 mM sodium pyruvate and 10% fetal calf serum. Fetal calf serum used in these assays was lot matched throughout. […] Toxicity assays were conducted between passages 10-20. Target compound toxicity was measured by incubating the test compound with the cells for 4 h, washing the cells and finally treating the cells with Alamar Blue. After 12-24 h, the fluorescence of the reduced dye was measured. Fluorescence intensity as a function of test compound concentration was fit to the Fermi equation, using non-linear least squares regression analysis, to estimate IC50 values.

HepG2 cells = assay: Mammalian cell toxicity, HepG2; assay type: cell-based; conditions: cytotoxicity
Experimental: as §3

ChDHFR-TS = ChDHFR-TS (Cryptosporidium hominis, UniProt Q27552); assay: ChDHFR enzyme inhibition assay; assay type: biochemical; conditions: IC50 against ChDHFR
Sequence of ChDHFR-TS (Q27552 1-521): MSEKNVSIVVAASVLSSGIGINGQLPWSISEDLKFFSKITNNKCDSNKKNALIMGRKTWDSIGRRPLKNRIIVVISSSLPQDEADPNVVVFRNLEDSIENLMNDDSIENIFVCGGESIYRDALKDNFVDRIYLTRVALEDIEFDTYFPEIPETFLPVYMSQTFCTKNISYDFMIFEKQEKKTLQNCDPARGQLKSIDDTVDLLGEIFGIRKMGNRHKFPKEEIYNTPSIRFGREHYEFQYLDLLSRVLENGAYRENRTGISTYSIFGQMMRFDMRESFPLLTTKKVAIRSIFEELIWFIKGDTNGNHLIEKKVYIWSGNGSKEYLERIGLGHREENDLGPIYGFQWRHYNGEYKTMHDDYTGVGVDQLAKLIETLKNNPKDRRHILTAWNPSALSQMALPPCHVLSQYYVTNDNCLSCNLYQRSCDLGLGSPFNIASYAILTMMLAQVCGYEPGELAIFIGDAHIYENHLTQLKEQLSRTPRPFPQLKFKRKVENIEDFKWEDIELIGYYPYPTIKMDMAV
Experimental: as §1
Compounds were evaluated in spectrophotometric enzyme assays using ChDHFR-TS and hDHFR. Inhibition constants (IC50) were measured (see Table 4). […] The compound abbreviations in Table 4 refer to the following compounds: […]

TgDHFR = TgDHFR (Toxoplasma gondii, UniProt Q07422, DEL43-70); assay: TgDHFR enzyme inhibition assay; assay type: biochemical
Sequence of TgDHFR (Q07422 71-250, added parts left off, stated change not applied): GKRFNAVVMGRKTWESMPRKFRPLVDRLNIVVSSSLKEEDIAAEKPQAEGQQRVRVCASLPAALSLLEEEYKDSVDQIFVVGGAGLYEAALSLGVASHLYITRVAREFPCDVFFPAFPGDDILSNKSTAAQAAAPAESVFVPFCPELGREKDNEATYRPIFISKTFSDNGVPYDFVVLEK
Experimental: These residues were removed, leaving a five residue loop region characteristic of several other species of DHFR.
as §1

S. aureus DHFR = S. aureus DHFR (Staphylococcus aureus, UniProt P0A017); assay type: biochemical; conditions: for Selectivity (h/Sa): IC50 (human)/IC50 (pathogen); for IC50: average of at least three measurements
Experimental: as §2

S. pyogenes DHFR = S. pyogenes DHFR (Streptococcus pyogenes, UniProt Q9A091); assay: S. pyogenes DHFR enzyme inhibition assay; assay type: biochemical; conditions: for Selectivity (h/Sp): IC50 (human)/IC50 (pathogen); for IC50: average of at least three measurements
Sequence of S. pyogenes DHFR (Q9A091 1-165): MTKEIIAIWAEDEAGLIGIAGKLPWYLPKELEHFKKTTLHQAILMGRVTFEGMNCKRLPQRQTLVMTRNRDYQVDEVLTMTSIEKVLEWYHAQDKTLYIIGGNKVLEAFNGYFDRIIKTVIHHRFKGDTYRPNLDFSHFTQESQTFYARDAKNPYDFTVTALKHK
Experimental: as §2

S. aureus 13709 (MRSA) = assay: Antibacterial MIC, broth microdilution with Alamar Blue; assay type: cell-based, Staphylococcus aureus; conditions: for Selectivity MRSA: IC50 (MCF10)/MIC (pathogen); for MIC MRSA: Table 6
Experimental: (§4) For susceptibility testing, 10 μL of glycerol stock was suspended in a 10 mL shake flask culture of chemically defined Isosensitest broth (Oxoid) supplemented with 2% w/v glucose. A sample of the shake flask culture was diluted to 1×10^6 cells/mL in media and added to 96-well test plates (100 μL per well) containing test compounds dispensed in DMSO (2 μL). After an incubation period (30° C.) determined from the strain specific doubling time, a 0.03% w/v aqueous solution of resazurin (10 μL) was added and the plates were allowed to incubate; each well was then scored for dye reduction.

Streptococcus pyogenes = assay: as above; assay type: cell-based; conditions: for Selectivity S. pyogenes: IC50 (MCF10)/MIC (pathogen); for MIC S. pyogenes: Table 6
Experimental: as §4

[1] = Table 7, read-out: IC50 (hDHFR)
[2] = Table 5, average of at least three measurements, read-out: IC50 human

Sequence of hDHFR (P00374 whole entry): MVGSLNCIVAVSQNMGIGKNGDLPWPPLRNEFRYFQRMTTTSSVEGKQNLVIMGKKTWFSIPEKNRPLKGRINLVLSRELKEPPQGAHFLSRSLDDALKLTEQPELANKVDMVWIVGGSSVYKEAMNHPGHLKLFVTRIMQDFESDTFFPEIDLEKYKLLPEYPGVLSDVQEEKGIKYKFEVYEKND

SMILES | IC50 (hDHFR; [2]) [nM] | Selectivity (h/Sa) (S. aureus DHFR) | IC50 (S. aureus DHFR) [nM] | Selectivity (h/Sp) (S. pyogenes DHFR) | IC50 (S. pyogenes DHFR) [nM] | Selectivity MRSA (S. aureus 13709 (MRSA)) | MIC MRSA (S. aureus 13709 (MRSA)) [µg/mL] | Selectivity S. pyogenes (Streptococcus pyogenes) | MIC S. pyogenes (Streptococcus pyogenes) [µg/mL] | IC50 (MCF-10 cells; Table 6) [nM] | IC50 (HepG2 cells; Table 6) [nM] | other results
COc1cc(C(C)C#Cc2c(C)nc(N)nc2N)cc(N2C[C@@H](C)O[C@@H](C)C2)c1 (mixture of isomers) [Compound 156] |  |  |  |  |  |  |  |  |  |  |  | IC50 (hDHFR; [1]): 330 ± 6 nM; Selectivity (CgDHFR; Table 7, hDHFR vs CgDHFR): 4.9 ± 0.4; IC50 (CgDHFR): 68 ± 5 nM; MIC (Cg) (C. glabrata): 6.3 µg/mL (≈ 15.9 µM); Selectivity Index (C. glabrata; IC50 (MCF-10)/MIC (C. glabrata)): 108; MIC C. glabrata (C. glabrata): 2.9 µg/mL (≈ 7.33 µM); IC50 (MCF-10 cells; Table 8): 314000 nM; IC50 (HepG2 cells; Table 8): 193000 nM
COc1cc([C@@H](C)C#Cc2c(C)nc(N)nc2N)cc(OC)c1OC [137(R), 2,4-Diamino-5-((R)-3-(3,4,5-trimethoxyphenyl)but-1-ynyl)-6-methylpyrimidine] |  |  |  |  |  |  |  |  |  |  |  | IC50 (ChDHFR-TS): < 100000 nM; IC50 (TgDHFR): < 100000 nM
CCc1nc(N)nc(N)c1C#CCc1cc(-c2ccccc2)ccc1OC [Compound 142] | 300 ± 10 | 125 | 2.4 ± 0.2 | 51 | 5.9 ± 0.2 | 372 | 0.18 (≈ 0.502 µM) | 11,167 | 0.006 (≈ 0.0167 µM) | 67000 |  | improvement in potency against S. aureus DHFR (S. aureus DHFR; relative to compound 140): 18 fold
CCc1nc(N)nc(N)c1C#CCc1cccc(-c2ccccc2)c1 [Compound 143] | 290 ± 36 | 10 | 28 ± 1.7 | 11 | 26 ± 1.7 | 45 | 0.71 (≈ 2.16 µM) | 842 | 0.04 (≈ 0.122 µM) | 32000 |  | 
CCc1nc(N)nc(N)c1C#CCc1cc(OC)cc(-c2ccccc2)c1 [Compound 144] | 140 ± 1 | 2.4 | 59 ± 2.3 | 3 | 52 ± 1.7 | 2500 | 0.08 (≈ 0.223 µM) | 603 | 0.33 (≈ 0.921 µM) | 199000 |  | 
COc1ccc(-c2ccccc2)cc1C(C)C#Cc1c(C)nc(N)nc1N (stereo not shown) [Compound 145] | 97 ± 10 | 1.3 | 75 ± 4 | 4 | 23 ± 1.5 | 53 | 0.716 (≈ 2 µM) | 950 | 0.04 (≈ 0.112 µM) | 38000 | 94000 | 
CCc1nc(N)nc(N)c1C#CC(C)c1cc(-c2ccccc2)ccc1OC (stereo not shown) [Compound 146] | 100 ± 10 | 1.5 | 67 ± 5.5 | 4 | 26 ± 2.5 | 72 | 0.744 (≈ 2 µM) | 675 | 0.08 (≈ 0.215 µM) | 54000 | 77000 | 
COc1cc(-c2ccncc2)cc(C(C)C#Cc2c(C)nc(N)nc2N)c1 (stereo not shown) [Compound 147] | 1500 ± 8 |  | 26 ± 2 |  | 160 ± 9 |  | 0.09 (≈ 0.25 µM) |  | 0.012 (≈ 0.0334 µM) | 220000 | 233000 | IC50 (hDHFR; [1]): 1500 ± 83 nM; IC50 (CgDHFR): 97 ± 9 nM; MIC (Cg) (C. glabrata): 1.4 µg/mL (≈ 3.9 µM); antifungal MIC C. glabrata (C. glabrata): 1.4 to 1.5 µg/mL
CCc1nc(N)nc(N)c1C#CC(C)c1cc(OC)cc(-c2ccncc2)c1 (stereo not shown) [Compound 148] | 1300 ± 11 |  | 19 ± 1 |  | 180 ± 19 |  | 0.09 (≈ 0.241 µM) |  | 0.012 (≈ 0.0321 µM) | 85000 | 171000 | IC50 (hDHFR; [1]): 1300 ± 11 nM; IC50 (CgDHFR): 89 ± 8 nM; MIC (Cg) (C. glabrata): 1.5 µg/mL (≈ 4.02 µM); MIC C. glabrata (C. glabrata): 0.36 µg/mL (≈ 0.964 µM); antifungal MIC C. glabrata (C. glabrata): 1.4 to 1.5 µg/mL; IC50 (MCF-10 cells; Table 8): 85000 nM; IC50 (HepG2 cells; Table 8): 171000 nM
CCc1nc(N)nc(N)c1C#CCc1cc(-c2ccncc2)ccc1OC [Compound 149] | 330 ± 12 | 16 | 21 ± 1 | 17 | 19 ± 1.3 | >20,000 | 0.01 (≈ 0.0278 µM) | 3,867 | 0.09 (≈ 0.25 µM) | 217000 | 199000 | 
CCc1nc(N)nc(N)c1C#CCc1cc(OC)cc(-c2ccncc2)c1 [Compound 150] | 61 ± 5.7 | 5 | 12 ± 2.4 | 2 | 28 ± 4 | 9,089 | 0.045 (≈ 0.125 µM) | 10,225 | 0.04 (≈ 0.111 µM) | 409000 | 465000 | 
CCc1nc(N)nc(N)c1C#CCc1cccc(-c2ccncc2)c1 [Compound 151] | 520 ± 23 | 26 | 20 ± 0.5 | 17 | 30 ± 1.7 | 11,585 | 0.041 (≈ 0.124 µM) | 11,875 | 0.04 (≈ 0.121 µM) | 475000 | > 500000 | 
CCc1nc(N)nc(N)c1C#CCc1cccc(-c2cccnc2)c1 [Compound 154] | 290 ± 15 | 9 | 33 ± 0.5 | 6 | 47 ± 4.6 | >20,000 | 0.041 (≈ 0.124 µM) | >20,000 | 0.08 (≈ 0.243 µM) | > 500000 | > 500000 | 
CCc1nc(N)nc(N)c1C#CCc1cccc(-c2cncnc2)c1 [Compound 155] | 160 ± 13 | 5 | 35 ± 1.1 | 7 | 23 ± 1.2 | 3,333 | 0.15 (≈ 0.454 µM) | 26,316 | 0.019 (≈ 0.0575 µM) | > 500000 |  | 
